Common to all, as to type: functional
Common to all, as to parameters: scale not given: the % may be the effect or the level left

The test system of assay [1] is HeLa S3. The assay is described as follows: Inhibition of RNA synthesis in human HeLaS3 cells assessed as [3H]uridine incorporation at 75 ug/ml after 45 mins by liquid scintillation counting.
Assay [2] relates to HL-60. The experiment in a line: Inhibition of DNA synthesis in human HL60 cells assessed as [3H]thymidine incorporation at 10.4 ug/ml after 45 mins by liquid scintillation counting. (In general: Uptake of a labelled nucleoside into DNA is a usual measure of proliferation.)
The test system of assay [3] is HeLa S3. The experiment in a line: Inhibition of RNA synthesis in human HeLaS3 cells assessed as [3H]uridine incorporation at 50 ug/ml after 45 mins by liquid scintillation counting.
For assay [4], the system named is HL-60. The assay is described as follows: Inhibition of protein synthesis in human HL60 cells assessed as [3H]leucine incorporation at 75 ug/ml after 45 mins by liquid scintillation counting.
In assay [5] the test system is HeLa S3. The experiment in a line: Inhibition of protein synthesis in human HeLaS3 cells assessed as [3H]leucine incorporation at 50 ug/ml after 45 mins by liquid scintillation counting.
Assay [6] has as its system HeLa S3. The assay is described as follows: Inhibition of DNA synthesis in human HeLaS3 cells assessed as [3H]thymidine incorporation at 10.4 ug/ml after 45 mins by liquid scintillation counting.
Assay [7] relates to HeLa S3. The experiment in a line: Inhibition of RNA synthesis in human HeLaS3 cells assessed as [3H]uridine incorporation at 25 ug/ml after 45 mins by liquid scintillation counting.
The subject of assay [8] is HL-60. The assay is described as follows: Inhibition of DNA synthesis in human HL60 cells assessed as [3H]thymidine incorporation at 50 ug/ml after 45 mins by liquid scintillation counting.
Assay [9] deals with HL-60. The assay is described as follows: Inhibition of RNA synthesis in human HL60 cells assessed as [3H]uridine incorporation at 75 ug/ml after 45 mins by liquid scintillation counting.
The subject of assay [10] is HeLa S3. The experiment in a line: Inhibition of protein synthesis in human HeLaS3 cells assessed as [3H]leucine incorporation at 75 ug/ml after 45 mins by liquid scintillation counting.
The test system of assay [11] is HeLa S3. The assay is described as follows: Inhibition of DNA synthesis in human HeLaS3 cells assessed as [3H]thymidine incorporation at 75 ug/ml after 45 mins by liquid scintillation counting.
In assay [12] the test system is HeLa S3. The assay is described as follows: Inhibition of protein synthesis in human HeLaS3 cells assessed as [3H]leucine incorporation at 25 ug/ml after 45 mins by liquid scintillation counting.
Assay [13] relates to HeLa S3. The experiment in a line: Inhibition of protein synthesis in human HeLaS3 cells assessed as [3H]leucine incorporation at 10.4 ug/ml after 45 mins by liquid scintillation counting.
The test system of assay [14] is HeLa S3. The experiment in a line: Inhibition of DNA synthesis in human HeLaS3 cells assessed as [3H]thymidine incorporation at 25 ug/ml after 45 mins by liquid scintillation counting.
For assay [15], the system named is HL-60. The experiment in a line: Inhibition of RNA synthesis in human HL60 cells assessed as [3H]uridine incorporation at 50 ug/ml after 45 mins by liquid scintillation counting.
Assay [16] relates to HL-60. The assay is described as follows: Inhibition of protein synthesis in human HL60 cells assessed as [3H]leucine incorporation at 10.4 ug/ml after 45 mins by liquid scintillation counting.
Assay [17] relates to HeLa S3. The experiment in a line: Inhibition of RNA synthesis in human HeLaS3 cells assessed as [3H]uridine incorporation at 10.4 ug/ml after 45 mins by liquid scintillation counting.
In assay [18] the test system is HeLa S3. The assay is described as follows: Inhibition of DNA synthesis in human HeLaS3 cells assessed as [3H]thymidine incorporation at 50 ug/ml after 45 mins by liquid scintillation counting.
For assay [19], the system named is HL-60. The assay is described as follows: Inhibition of RNA synthesis in human HL60 cells assessed as [3H]uridine incorporation at 10.4 ug/ml after 45 mins by liquid scintillation counting.
For assay [20], the system named is HL-60. The assay is described as follows: Inhibition of RNA synthesis in human HL60 cells assessed as [3H]uridine incorporation at 25 ug/ml after 45 mins by liquid scintillation counting.
In assay [21] the test system is HL-60. The experiment in a line: Inhibition of protein synthesis in human HL60 cells assessed as [3H]leucine incorporation at 25 ug/ml after 45 mins by liquid scintillation counting.
Assay [22] concerns HL-60. The experiment in a line: Inhibition of DNA synthesis in human HL60 cells assessed as [3H]thymidine incorporation at 75 ug/ml after 45 mins by liquid scintillation counting.
For assay [23], the system named is HL-60. The experiment in a line: Inhibition of DNA synthesis in human HL60 cells assessed as [3H]thymidine incorporation at 25 ug/ml after 45 mins by liquid scintillation counting.
The test system of assay [24] is HL-60. The assay is described as follows: Inhibition of protein synthesis in human HL60 cells assessed as [3H]leucine incorporation at 50 ug/ml after 45 mins by liquid scintillation counting.

The structures appear in SMILES notation.

Take `COc1ccc(O)c(CC=C(C)C)c1`: the Activity was determined as 90% in the assay with HeLa S3 [1]; 64% with HL-60 [2]; 91% in the assay on HeLa S3 [3]; 32% in the assay with HL-60 [4]; 38% with HeLa S3 [5]; 100% in the assay with HeLa S3 [6]. Moreover, the Activity in the assay with HeLa S3 [7] amounted to 86%; in the assay on HL-60 [8], 14%; with HL-60 [9], 38%; in the assay with HeLa S3 [10] it was 37%; with HeLa S3 [11], 31%; in the assay with HeLa S3 [12] it was 43%. Also, the Activity with HeLa S3 [13] amounted to 96%; with HeLa S3 [14], 59%; in the assay with HL-60 [15], 55%; in the assay with HL-60 [16], 49%; with HeLa S3 [17], 97%; in the assay with HeLa S3 [18] it was 70%. Besides, the Activity is 98% in the assay with HL-60 [19]; 50% in the assay with HL-60 [20]; 38% in the assay with HL-60 [21]; 1.5% in the assay with HL-60 [22]; 32% with HL-60 [23]; 35% in the assay with HL-60 [24].

Consider `CC(C)=CCC/C(C)=C/CC/C(C)=C/CC/C(C)=C/Cc1cc(O)ccc1O` [GERANYLGERANYLHYDROQUINONE], for which the Activity in the assay with HeLa S3 [1] is 86%; in the assay with HL-60 [2], 55%; with HeLa S3 [3] it was 91%; in the assay with HL-60 [4] it was 32%; in the assay on HeLa S3 [5] it was 67%; with HeLa S3 [6], 100%. In addition, the Activity in the assay on HeLa S3 [7] came out at 83%; with HL-60 [8] it was 20%; in the assay with HL-60 [9], 42%; in the assay on HeLa S3 [10] it was 61%; in the assay with HeLa S3 [11], 49%; with HeLa S3 [12], 92%. Further, the Activity in the assay on HeLa S3 [13] worked out at 100%; with HeLa S3 [14], 74%; in the assay on HL-60 [15], 36%; in the assay on HL-60 [16], 85%; with HeLa S3 [17], 96%; in the assay with HeLa S3 [18], 83%. Moreover, the Activity was 95% with HL-60 [19]; 32% with HL-60 [20]; 52% in the assay on HL-60 [21]; 17% in the assay with HL-60 [22]; 38% with HL-60 [23]; 52% with HL-60 [24].

These data come from ChEMBL document CHEMBL1159259, “A bioactive tetraprenylphenol from Lactarius lignyotus” (1995).
